How the values were obtained:
[1] = human, in vivo
[2] = target: T1, reverse transcriptase (RT) (HIV-1 M:B_HXB2R, UniProt P04585); type: biochemical; design: A2: RT in cord-blood lymphocyte cultures infected with HIV from an AIDS patient
Description: The second in-vitro test uses the enzymatic activity of RT, testing the kinetic and inhibitory action of the molecular complexes. The cloning of the RT in biologically active form made it possible to have large quantities of the RT enzyme available for these studies (RT from Sigma, lot # R 9376).
The steady state reaction conditions for RT are chosen that approximate physiological conditions are met: pH 7.45 (37° C.), ionic strength of 150 mM, routinely a buffer was employed consisting of 50 mM TRIS-HCl, 100 mM KCl, 5 mM MgCl2, the addition of 10 μg/mL bovine serum albumin were included. […] The aforementioned precautions designed to avoid potential reduction of SAM in the presence of DTT are taken into accounts to preclude any distortions of the kinetic behavior of the RT enzyme in the presence of the various substrates e.g. as our molecular compounds. […] The enzyme concentrations of RT was approx. 20 nM, T-P (template-primer) […] and 25 μM of [^3 H]-dNTP (assay conditions are modified fro those of Mayunder et al., J. biol. Chem.,263, 15657, 1988). […] In case both parameters are effected to the same extent, then the inhibition is uncompetitive. In order to facilitate the difference between SAM kinetics and those for the molecular complexes we studied first SAM kinetics and subsequently the kinetics in the presence of the molecular complexes. […] Similar experiments have been carries out with dGTP.
The enzyme was assayed with 50 nM primer sites on poly (rA): oligo (dT), and variable concentrations of [^3 H] dTP as substrates in a reaction mixture as described above at pH 7.5 (37° C.).

HIV = test: TPA- or cytokine-stimulated HIV replication/expression; type: cell-based; details: in vitro
[3] = tested on: RT (triphosphatase activity); test: Triphosphatase activity in presence of RT and phosphate; type: biochemical, HIV; details: in the presence of phosphate (Pi)
Excerpt: Furthermore the efficiency of such molecular complexes is also seen on the rate at which they are metabolized intra cellularly to the corresponding free ddNMP available to be further transformed to the triphosphate derivative active on the RT, which is enhanced due to these molecular complexes as shown through the kinetics in-vitro and in-vivo. In order to make this transformation feasible, the unique and stable molecular conformation of these complexes and their solvation facilitates the inhibitory and regulatory effects on RT, lipid penetration and inhibitory effects on the growing infective RNA or DNA polymeric chains. The avoidance of e.g. AZT-monophosphate accumulation, similarly also for other ddN N3 compounds, which causes severe inhibition of cellular dTMP kinase, resulting in a blockade of further phosphorylation steps, while on the contrary, the disclosed molecular complexes, appear to be unable to induce the same effects and is clearly incapable of inhibiting their own phosphorylation. This is completely different from those of the single administration of the components, e.g. SAM and ddN≈N3. […] This is also endorsed by the findings that the kinetics of inhibition on the RT enzyme is influenced by the presence of inorganic phosphate resulting in restoring active ATP during the presence of SAM. […]

thymidylate kinase = test: Inhibition of thymidylate kinase, in vitro; type: biochemical
HIV-1 isolate of HIV IIB = test: HIV replication in de novo infected lymphocyte cultures, viral core protein p24 endpoint; type: cell-based, HIV-1 (in human peripheral blood lymphocytes); details: FIG. 1, p24
Description: For this purpose, SAM has been tested in a dose response titration ranging from 1000 μg/mL to 10 μg/mL final concentrations for the ability to inhibit HIV replication in de novo infected cells. Endpoint in this assay was the quantitative determination of the concentration of the viral core protein p24 as described by Mueller et al. (Mueller, Ch., Moritz, R., Prigge, G., Weitzel, D., Kunze, R., Kage, A., Koettgen, E., Fresenius Z. Anal. Chem.,330, 352-353, 1988). […] The toxicity testing of cellular proliferation was performed according to J. Mosmann (J. Immunological Methods, 65, 55-63, 1983). […] All experiments were carried out in triplicate cultures, including those for the various concentrations of the molecular complexes tested.--The lymphocytes were infected with a standardized preparation of HIV-1 isolate of HIV IIB. The cells were sedimented by low speed centrifugation, the sediment resuspended in the assay buffer (standard), and the resuspended cells were inoculated by adjusting to the following conditions: 100 ng of viral core protein p24/mL and 3200 pg HIV RNA/mL, respectively. Normally 3×10^8 lymphocytes were suspended in 1 mL if the HIV inoculum, and incubated at 37° C. for 60 minutes. After washing the cells twice with 50 mL of culture medium the cells were resuspended at a concentration of 3×10^6 cells/mL in culture medium which contains 10 units/mL of human recombinant interleukin-2. 100 μL of this cell suspension were added to 100 μL of the pre-diluted solution of the compounds to be tested, without adding any salt or protein. The entire assay was cultivated in humidified atmosphere in the presence of 5% CO2 at 37° C. After the 4th day of infection the viral replication was determined in the lymphocyte cultures. The end point of the titration was the determination of the viral core protein p24 in the supernatant of each of the lymphocyte cultures. 150 μL of the supernatant were removed and transferred to a vial containing 50 μL/well SDS at a final concentration of 0.08% (w/w). The concentration of the synthesized p24 by the HIV infected cells was determined according to Mueller et al., using recombinant p24 as a standard for calibration.

[4] = target: T1, reverse transcriptase (RT); details: read-out: apparent Ki (recalculated, corrected for DTT); recalculated from literature
Description: The disclosed inhibitory concentrations of SAM is meant as the apparent concentration of SAM, which inhibits under their in vitro assay conditions 50% of the RT activity. […] Inhibitory experiments using DTT, e g. for protecting sulfhydryl groups of the enzyme (RT), in their assay have to be omitted or corrected for, respectively, since DTT act as a strong reducing agent, particularly for SAM or SAM-tosylate-bis-sulfate which potentiates the reduction due to the sulfonium group which is being reduced to the sulfinium group, or to S-S-complexes comprising of SAM and DDT, respectively. […] Note, the determined inhibitory concentrations are not the ones which can be correlated to the ones according to Michaelis-Mentenkinetics.

IL-β, IL-2 = test: Cytokine biosynthesis after stimulation of lymphocytes; type: cell-based; details: after phytohemagglutination stimulation

C[S+](CC[C@H](N)C(=O)O)C[C@H]1O[C@@H](n2cnc3c(N)ncnc32)[C@H](O)[C@@H]1O (single isomer, unassigned; (+)) [SAM, (+)-5'-[(3-amino-3-carboxypropyl)methylsulfinio]-5'-deoxyadenosine]
CSF peak of SAM relative to plasma [1]: lower and more prolonged for healthy patients
stability in RT assay with DTT [2]: destroy SAM
cytokine-activation of HIV expression (HIV): does not inhibit cytokine-activation of HIV expression in vitro
triphosphatase activity [3]: stimulated
inhibition of thymidylate kinase (thymidylate kinase): reversal of the inhibition of the thymidylate kinase
inhibition of HIV replication (HIV-1 isolate of HIV IIB): inhibited HIV replication in a dose dependent response
fraction unbound (in vitro): 0.95 to 0.97
Ki [4]: 200 to 250 nM
cytokine biosynthesis (IL-β, IL-2) (IL-β, IL-2): influenced
